Patent US20020137929A1, “1 - (3-heterocyclylphenyl) isothiourea, -isourea, -guanidine and -amidine herbicidal agents” (Intellectual Property Department, BASF Aktiengesellschaft, priority 1998, published 2002)

Key:
CASOB (Sicklepod) = experiment: Postemergence herbicidal evaluation; assay type: in vivo, Cassia obtusifolia; settings: postemergence
How it was run: (§1)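 Seedlings grown about two weeks were sprayed at 40 psi with compound dispersed in 50/50 acetone/water plus 0.5% TWEEN 20, at about 0.0156 to 0.500 kg/ha. Plants were kept in the greenhouse and scored 4–5 weeks later on a 0–9 visual scale against untreated controls.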

GALAP (Galium) = experiment: Postemergence herbicidal evaluation; assay type: in vivo, Galium aparine; settings: postemergence
How it was run: as §1

ZEAMX (Corn, Field) [1] = experiment: Postemergence herbicidal evaluation; assay type: in vivo, Zea mays; settings: postemergence
How it was run: as §1

AMBEL (Ragweed, Common) = experiment: Preemergence herbicidal evaluation; assay type: in vivo, Ambrosia artemisifolia; settings: preemergence, rated 4-5 weeks after treatment, 0-9 scale
How it was run: (§2)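 Scores use a 0–9 visual scale covering stand, vigor, malformation, size and chlorosis relative to controls, rated four to five weeks after treatment. Before emergence, soil-planted seeds were sprayed with compound in aqueous acetone at roughly 0.0156–0.500 kg/ha and held in the greenhouse.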

[2] = test system: CHEAL (Lambsquarters, Common); experiment: Preemergence herbicidal evaluation; assay type: in vivo, Chenopodium album; settings: preemergence, rated 4-5 weeks after treatment, 0-9 scale
How it was run: as §2

[3] = test system: IPOHE (Morningglory, Ivyleaf); experiment: Preemergence herbicidal evaluation; assay type: in vivo, Ipomoea hederacea; settings: preemergence, rated 4-5 weeks after treatment, 0-9 scale
How it was run: as §2

ORYSAT (Rice, Tebonnet) = experiment: Preemergence herbicidal evaluation; assay type: in vivo, Oryza sativa, (L.) Tebonnet; settings: preemergence, rated 4-5 weeks after treatment, 0-9 scale
How it was run: as §2

[4] = test system: TRZAWR (Wheat, Winter, cv Riband); experiment: Preemergence herbicidal evaluation; assay type: in vivo, Triticum aestivum; settings: preemergence, rated 4-5 weeks after treatment, 0-9 scale
How it was run: as §2

ZEAMX (Corn, Field) [5] = experiment: Preemergence herbicidal evaluation; assay type: in vivo, Zea mays; settings: preemergence, rated 4-5 weeks after treatment, 0-9 scale
How it was run: as §2

[6] = test system: ECHORC (Watergrass (Calif.)); experiment: Preemergence weed control under flooded paddy conditions; assay type: in vivo, Echinochloa oryzoides; settings: rated 3-4 weeks after treatment
How it was run: (§3)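 Visual injury scored 0-9 against control three to four weeks post-treatment, greenhouse-grown. Application: acetone/water (50/50) solutions dosed directly into flood water (1.5-3 cm over silt loam, planted top 0.5 cm), roughly 0.0313 to 0.500 kg/ha active ingredient.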

CYPIR (Rice Flatsedge) = experiment: as above; assay type: in vivo, Cyperus iria; settings: rated 3-4 weeks after treatment
How it was run: as §3

CYPSE (Flatsedge) [7] = experiment: as above; assay type: in vivo, Cyperus serotinus; settings: rated 3-4 weeks after treatment
How it was run: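 Ratings on a 0-9 visual scale cover stand, vigor, malformation, size, chlorosis and overall appearance relative to a control, taken three to four weeks post-treatment. Application was into flood water over freshly sown silt loam at roughly 0.0313 to 0.500 kg/ha.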

[8] = test system: ECHORC (Watergrass (Calif.)); experiment: Postemergence weed control under flooded paddy conditions; assay type: in vivo, Echinochloa oryzoides; settings: postemergence weeds, rated 3 to 4 weeks after treatment
How it was run: (§4)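 Herbicidal effect is judged by eye on a 0–9 scale versus control, 3–4 weeks after dosing. Dosing is into flood water kept 1.5–3 cm over the soil, at about 0.0313–0.500 kg/ha in aqueous/acetone 50/50 v/v, on 3–5 cm weeds and 1.5–2.5-leaf rice seedlings.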

CYPSE (Flatsedge) [9] = experiment: as above; assay type: in vivo, Cyperus serotinus; settings: postemergence weeds, rated 3 to 4 weeks after treatment
How it was run: as §4

In the case of `CCOC(=O)CN1C(=O)C(CC(=O)NS(=O)(=O)CC)SC1=Nc1cc(-n2c(=O)cc(C(F)(F)F)n(C)c2=O)c(F)cc1Cl` (centres unmarked) [Compound 103, Ethyl 2-{{2-chloro-5-[3,6-dihydro-3-methyl-2,6-dioxo-4-(trifluoromethyl)-1(2H)-pyrimidinyl]-4-fluorophenyl}imino}-5-{[(ethylsulfonyl)carbamoyl]-methyl}-4-oxo-3-thiazolidineacetate], the “herbicidal rating CASOB” value (CASOB (Sicklepod); rate 0.0156 kg/ha) is reported as 0.0, the “herbicidal rating CASOB” value (CASOB (Sicklepod); rate 0.0313 kg/ha) is reported as 3.0 and the “herbicidal rating CASOB” value (CASOB (Sicklepod); rate 0.0625 kg/ha) is reported as 3.0. The “herbicidal rating CASOB” value (CASOB (Sicklepod); rate 0.1250 kg/ha) was 3.0, the “herbicidal rating GALAP” value (GALAP (Galium); rate 0.0156 kg/ha) was 0.0 and the “herbicidal rating GALAP” value (GALAP (Galium); rate 0.0313 kg/ha) was 3.0. For the same molecule, the “herbicidal rating GALAP” value (GALAP (Galium); rate 0.0625 kg/ha) was 5.0, the “herbicidal rating GALAP” value (GALAP (Galium); rate 0.1250 kg/ha) was 7.0 and the “herbicidal rating ZEAMX” value (ZEAMX (Corn, Field) [1]; rate 0.0156 kg/ha) was 5.5. The “herbicidal rating ZEAMX” value (ZEAMX (Corn, Field) [1]; rate 0.0313 kg/ha) was 7.5, the “herbicidal rating ZEAMX” value (ZEAMX (Corn, Field) [1]; rate 0.0625 kg/ha) was 8.5 and the “herbicidal rating ZEAMX” value (ZEAMX (Corn, Field) [1]; rate 0.1250 kg/ha) was 8.5. For the same molecule, the AMBEL rating (AMBEL (Ragweed, Common); 0.0313 kg/ha) was 0.0, the AMBEL rating (AMBEL (Ragweed, Common); 0.0625 kg/ha) was 0.0 and the AMBEL rating (AMBEL (Ragweed, Common); 0.1250 kg/ha) was 0.0. For the same molecule, the AMBEL rating (AMBEL (Ragweed, Common); 0.2500 kg/ha) was 4.0, the AMBEL rating (AMBEL (Ragweed, Common); 0.5000 kg/ha) was 9.0 and the CHEAL rating ([2]; 0.0313 kg/ha) was 0.0. The CHEAL rating ([2]; 0.0625 kg/ha) was 4.0, the CHEAL rating ([2]; 0.1250 kg/ha) was 9.0 and the CHEAL rating ([2]; 0.2500 kg/ha) was 9.0. The CHEAL rating ([2]; 0.5000 kg/ha) was 9.0, the IPOHE rating ([3]; 0.0313 kg/ha) was 0.0 and the IPOHE rating ([3]; 0.0625 kg/ha) was 0.0. The IPOHE rating ([3]; 0.1250 kg/ha) was 3.0, the IPOHE rating ([3]; 0.2500 kg/ha) was 5.0 and the IPOHE rating ([3]; 0.5000 kg/ha) was 9.0. It also gave an ORYSAT rating (ORYSAT (Rice, Tebonnet); 0.0313 kg/ha) of 0.0, an ORYSAT rating (ORYSAT (Rice, Tebonnet); 0.0625 kg/ha) of 0.0 and an ORYSAT rating (ORYSAT (Rice, Tebonnet); 0.1250 kg/ha) of 0.0. It also gave an ORYSAT rating (ORYSAT (Rice, Tebonnet); 0.2500 kg/ha) of 0.0, an ORYSAT rating (ORYSAT (Rice, Tebonnet); 0.5000 kg/ha) of 2.0 and a TRZAWR rating ([4]; 0.0313 kg/ha) of 0.0. It also gave a TRZAWR rating ([4]; 0.0625 kg/ha) of 0.0, a TRZAWR rating ([4]; 0.1250 kg/ha) of 0.0 and a TRZAWR rating ([4]; 0.2500 kg/ha) of 0.0. It also gave a TRZAWR rating ([4]; 0.5000 kg/ha) of 1.0, a ZEAMX rating (ZEAMX (Corn, Field) [5]; 0.0313 kg/ha) of 0.0 and a ZEAMX rating (ZEAMX (Corn, Field) [5]; 0.0625 kg/ha) of 0.0. It also gave a ZEAMX rating (ZEAMX (Corn, Field) [5]; 0.1250 kg/ha) of 0.0, a ZEAMX rating (ZEAMX (Corn, Field) [5]; 0.2500 kg/ha) of 0.0 and a ZEAMX rating (ZEAMX (Corn, Field) [5]; 0.5000 kg/ha) of 1.0. The “ECHORC herbicidal effect rating” value ([6]; 0.0313 kg/ha) was 4.0, the “ECHORC herbicidal effect rating” value ([6]; 0.0625 kg/ha) was 4.0 and the “ECHORC herbicidal effect rating” value ([6]; 0.1250 kg/ha) was 5.0. For the same molecule, the “ECHORC herbicidal effect rating” value ([6]; 0.2500 kg/ha) was 6.0, the “CYPIR herbicidal effect rating” value (CYPIR (Rice Flatsedge); 0.0313 kg/ha) was 4.0 and the “CYPIR herbicidal effect rating” value (CYPIR (Rice Flatsedge); 0.0625 kg/ha) was 6.0. The “CYPIR herbicidal effect rating” value (CYPIR (Rice Flatsedge); 0.1250 kg/ha) was 9.0, the “CYPIR herbicidal effect rating” value (CYPIR (Rice Flatsedge); 0.2500 kg/ha) was 9.0 and the “CYPSE herbicidal effect rating” value (CYPSE (Flatsedge) [7]; 0.0313 kg/ha) was 5.0. For the same molecule, the “CYPSE herbicidal effect rating” value (CYPSE (Flatsedge) [7]; 0.0625 kg/ha) was 5.0, the “CYPSE herbicidal effect rating” value (CYPSE (Flatsedge) [7]; 0.1250 kg/ha) was 6.0 and the “CYPSE herbicidal effect rating” value (CYPSE (Flatsedge) [7]; 0.2500 kg/ha) was 6.0. For the same molecule, the “Herbicidal rating ECHORC” value ([8]; Rate 0.0313 kg/ha) was 4.0, the “Herbicidal rating ECHORC” value ([8]; Rate 0.0625 kg/ha) was 4.0 and the “Herbicidal rating ECHORC” value ([8]; Rate 0.1250 kg/ha) was 5.0. For the same molecule, the “Herbicidal rating ECHORC” value ([8]; Rate 0.2500 kg/ha) was 6.0, the “Herbicidal rating CYPSE” value (CYPSE (Flatsedge) [9]; Rate 0.0313 kg/ha) was 5.0 and the “Herbicidal rating CYPSE” value (CYPSE (Flatsedge) [9]; Rate 0.0625 kg/ha) was 5.0. For the same molecule, the “Herbicidal rating CYPSE” value (CYPSE (Flatsedge) [9]; Rate 0.1250 kg/ha) was 6.0 and the “Herbicidal rating CYPSE” value (CYPSE (Flatsedge) [9]; Rate 0.2500 kg/ha) was 6.0.
